The source of these data is article PMC10220878 (Pharmaceutics, 2023).

One series concerns bEnd.3 cells. Briefly: MTS cell viability assay in bEnd.3 cells. (Tetrazolium dyes change colour on reduction, which living cells bring about.)
In the next series the test system is Oct-3. The conditions noted are these: cited from earlier work; for IC50: read-out: IC50 for 10 µM Metformin Uptake, Oct-3, 10 µM metformin.
The test system of the next series is Oct-1. The conditions noted are these: cited from earlier work; for IC50: read-out: IC50 for 10 µM Metformin Uptake, Oct-1, 10 µM metformin.
A further series deals with mouse primary astrocytes. In words: MTS cell viability assay in mouse primary astrocytes. Format: cell-based. The conditions noted are these: 3 h, concentrations used in permeability studies (MF 1, 10, 20 mM; mitoxantrone 25 µM; corticosterone 150 µM).
The test system of the next series is Oct-2. The conditions noted are these: cited from earlier work; for IC50: read-out: IC50 for 10 µM Metformin Uptake, Oct-2, 10 µM metformin.
For series [1] the following is noted: human subjects; cited from earlier work.
The subject of another series is hOCT2. The conditions noted are these: read-out: apparent IC50 of MF for uptake of tracer [14C] MF; cited from earlier work.
The target of another series is T1, P-gp (MDR1) (Homo sapiens, UniProt P08183).
T1 construct: host or cells: MDR1-MDCK (MDCK cells overexpressing MDR1)
In words: P-glycoprotein efflux transporter substrate assay (MDR1-MDCK transwell). The conditions noted are these: dog, MDR1-MDCK, 10 µM MF, 120 min. Format: in vitro ADME. The protocol: (§1) For P-GP efflux assay, MDR1-MDCK 12-well transport assay (MB Biosciences LLC, Natick, MA, USA) was used. The cells were maintained in high glucose DMEM media supplied with 10% FBS, non-essential amino acid, penicillin/streptomycin, L-glutamine, and colchicine as recommended by the supplier. After the shipping medium was changed to a fresh MDR1-MDCK cell culture medium, the plate was kept in the incubator for 24 h before performing the experiment. […] The inhibitor was present on both sides of the compartments during pre-incubation of 30 min and during the transport experiment. After 120 min of incubation at 37 °C, samples were collected from the basolateral chamber and quantified by LC-MS/MS method. […] The permeability coefficient (PC, cm/s) was calculated using the published literature method. The PC value from apical (A) to basolateral (B) compartment in the presence and absence of CsA was used to calculate the unidirectional flux ratio (UFR), which is defined by the following equation:(3) UFR=PC, A−to−B+CsA/PC,A−to−B−CsA

A further series addresses T2, P-GP (Homo sapiens, UniProt P08183).
T2 construct: host or cells: MDR1-MDCK (MDCK cells overexpressing MDR1)
The description is as above. Type of series: in vitro ADME. The protocol: as §1

Series [2] has as its system in vitro co-culture model of BBB (bEnd.3 cells and mouse primary astrocytes). In words: NaF permeability across BBB co-culture (barrier integrity). Format: in vitro ADME. The conditions noted are these: Figure S1.
The mark [3] stands for this setting: 3 h, concentrations used in permeability studies (MF 1, 10, 20 mM; mitoxantrone 25 µM; corticosterone 150 µM).
Setting [4] is: single transporter-expressing cell line, read-out: apparent Km of saturable MF uptake.

Where “and” joins values, the source holds several entries; their conditions need not be identical. Equal entries are not always repeated. Entries after “also recorded” stand apart in the source; their conditions may differ.

T2 sequence (P08183 whole entry): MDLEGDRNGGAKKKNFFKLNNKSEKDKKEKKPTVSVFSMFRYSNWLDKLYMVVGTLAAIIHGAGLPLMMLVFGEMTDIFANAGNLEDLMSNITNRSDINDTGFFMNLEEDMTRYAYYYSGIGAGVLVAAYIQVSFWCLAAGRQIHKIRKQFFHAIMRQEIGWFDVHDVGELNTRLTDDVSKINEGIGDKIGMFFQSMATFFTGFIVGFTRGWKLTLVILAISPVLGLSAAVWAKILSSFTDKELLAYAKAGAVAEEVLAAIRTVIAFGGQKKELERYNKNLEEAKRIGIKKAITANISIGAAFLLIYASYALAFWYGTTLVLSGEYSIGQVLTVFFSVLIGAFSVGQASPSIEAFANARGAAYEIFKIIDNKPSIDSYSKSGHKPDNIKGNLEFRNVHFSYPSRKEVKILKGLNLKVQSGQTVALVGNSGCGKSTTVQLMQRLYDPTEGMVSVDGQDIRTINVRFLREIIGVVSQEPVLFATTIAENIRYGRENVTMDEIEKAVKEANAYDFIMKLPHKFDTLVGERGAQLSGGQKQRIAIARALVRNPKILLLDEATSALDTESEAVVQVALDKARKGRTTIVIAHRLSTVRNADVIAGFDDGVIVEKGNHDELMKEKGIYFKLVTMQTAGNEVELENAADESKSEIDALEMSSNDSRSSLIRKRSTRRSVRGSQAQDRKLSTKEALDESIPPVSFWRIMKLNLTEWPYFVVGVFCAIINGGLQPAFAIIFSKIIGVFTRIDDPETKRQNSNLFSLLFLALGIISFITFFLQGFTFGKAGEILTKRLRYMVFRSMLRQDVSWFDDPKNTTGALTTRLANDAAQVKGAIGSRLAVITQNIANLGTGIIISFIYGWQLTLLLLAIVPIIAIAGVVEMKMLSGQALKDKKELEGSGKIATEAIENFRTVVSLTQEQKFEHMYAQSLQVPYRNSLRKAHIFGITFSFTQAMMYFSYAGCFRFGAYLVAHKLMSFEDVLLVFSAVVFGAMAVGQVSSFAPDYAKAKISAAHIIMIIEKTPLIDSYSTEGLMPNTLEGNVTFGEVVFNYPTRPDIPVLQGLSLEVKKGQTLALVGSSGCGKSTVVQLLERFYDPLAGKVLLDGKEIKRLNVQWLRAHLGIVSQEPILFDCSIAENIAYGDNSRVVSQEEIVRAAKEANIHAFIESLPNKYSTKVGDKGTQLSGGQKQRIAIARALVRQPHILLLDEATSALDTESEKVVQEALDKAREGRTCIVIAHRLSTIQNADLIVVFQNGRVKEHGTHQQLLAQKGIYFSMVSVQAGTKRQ
T1 sequence (P08183 whole entry): as above

One may read the IC50 as the point on the concentration scale where inhibition reaches its midpoint. Regarding `C[C@]12C[C@H](O)[C@H]3[C@@H](CCC4=CC(=O)CC[C@@]43C)[C@@H]1CC[C@@H]2C(=O)CO` [Corticosterone], the “toxicity to cells (MTS cell viability)” value with bEnd.3 cells (setting [3]) and with mouse primary astrocytes was “not toxic” in each case. Also, the IC50 in the series with Oct-3 is 0.2 µM; with Oct-1, 3.2 µM; in the series with Oct-2, 1.3 µM.

The Km is the substrate concentration at which the rate is half of its maximum. What is called Papp B→A is how fast a substance crosses the layer from the basolateral side. For orientation: Papp A→B means how fast a substance crosses the layer from the apical side. For the molecule `CN(C)C(=N)N=C(N)N` [MF, metformin], in [1], the steady-state concentration was 1.8 µg/mL and 13 µM. The “toxicity to cells (MTS cell viability)” value in the series on bEnd.3 cells (setting [3]) and in the series on mouse primary astrocytes was “not toxic” throughout. The Michaelis-Menten constant (Km) in the series with Oct-3 (setting [4]) was 2600 µM; in the series with Oct-1 (setting [4]) it was 3100 µM; in the series on Oct-2 (setting [4]) it was 600 µM. In addition, in the series with hOCT2, the IC50 is roughly 2000 µM. Also, the Papp B→A at 120 min, 10 µM on P-gp (MDR1) is 0.163 ± 0.006 ×10⁻⁶ cm/s. The molecule also had a Papp A→B at 120 min, 10 µM on P-gp (MDR1) (without CsA) of 0.258 ± 0.018 ×10⁻⁶ cm/s. Also, at P-GP (MDR1-MDCK, 10 µM MF, 120 min, with CsA 10 µM), the “Metformin PC, A > B, +CsA” value is listed as 3.28 ± 0.06 1 × 10^−7 cm/s. For the same molecule, the “interaction with the efflux transporter P-GP” value on P-GP (P-GP overexpressing cell line) was “does not interact”.

For the molecule `C[n+]1ccc(-c2ccccc2)cc1` [MPP+], in the series with bEnd.3 cells (5 mM, 4 h incubation), the “toxicity to cells (MTS cell viability)” value is listed as “toxic; also recorded: significantly affected”.

Take `O=C1c2c(O)ccc(O)c2C(=O)c2c(NCCNCCO)ccc(NCCNCCO)c21` [Mitoxantrone]: the “toxicity to cells (MTS cell viability)” value in the series with bEnd.3 cells (setting [3]) and in the series on mouse primary astrocytes was “not toxic” each time. The results for the IC50 with Oct-3, with Oct-1 and in the series on Oct-2 were 174 µM, 3 µM and 135 µM, respectively. In the series on Oct-1 (estimated IC50), the “IC50 for Oct1 lower than for Oct2 and Oct3 (selectivity)” value was 40–60 fold. Besides, the “inhibition of the respective transporter (Oct1)” value in the series with Oct-1 (mitoxantrone at 25 µM, based on Table 1) was greater than 80%.

Take `O=C([O-])c1ccccc1-c1c2ccc(=O)cc-2oc2cc([O-])ccc12.[Na+].[Na+]` [NaF, sodium fluorescein]: in series [2], the “PC of NaF compared with [14C] sucrose” value was “no statistically significant difference”.

For `CNCCCN1c2ccccc2CCc2ccccc21` [desipramine], the “toxicity to cells (MTS cell viability)” value is given as “toxic; also recorded: significantly affected” with bEnd.3 cells (200 µM, 4 h incubation) and “significantly affected” with bEnd.3 cells (100 µm, 4 h incubation).
